Assay results published in patent US20130090280A1, “CLEANING COMPOSITIONS AND METHODS” (HONEYWELL INTERNATIONAL INC., priority 2011, published 2013).
Like-named read-outs stand apart in the source and are kept apart here. One block for each compound: values may come before it.

Key:
[1] = chemical stability, reflux with metals and moisture, ion chromatography of aqueous wash; type: physicochemical
Description: The chemical stability of the compound 1233zd(E) by itself and also in the presence of water, metals, flux is another important factor to be considered in the identification of a successful solvent. […] This test continued for 2 weeks.
Solvent was boiled with water alone or in presence of various metal coupons such as stainless steel 304, cold-rolled steel, galvanized steel, copper, and aluminum. The coupons were partially immersed in the solvent which allowed the state of the coupons at the interface of liquid and vapor to be viewed. […] After the test, coupons were observed visually for rusting or pitting and the remaining solvent in the flask was examined for breakdown products including chlorides and fluorides which are good indicators of breakdown of solvents.

[2] = selected physical properties of solvents
Description: In the table Perc, is used as an abbreviation for perchloroethylene.

[3] = miscibility test, equal parts by weight of solvent and oils, visual observation; type: physicochemical
Description: Applicants compared the solubility of various materials which may be considered as soils to be cleaned in 1233zd(E) in Table 3. […] In all cases, the solvent looked clear and the mixtures are reported as miscible below. This is an initial mode of testing to check how well the solvent performs in dissolving the soils.

[4] = 0.2% moisture added, reflux 100 hours, AL
[5] = 0.2% moisture added, reflux 100 hours, CRS
[6] = 0.2% moisture added, reflux 100 hours, CU
[7] = 0.2% moisture added, reflux 100 hours, GAL
[8] = 0.2% moisture added, reflux 100 hours, S.S 304
[9] = 0.2% moisture added, reflux 100 hours, no metal
[10] = no additional moisture, reflux, AL
[11] = no additional moisture, reflux, CRS
[12] = no additional moisture, reflux, CU
[13] = no additional moisture, reflux, GAL
[14] = no additional moisture, reflux, S.S 304
[15] = no additional moisture, reflux, no metal
[16] = no additional moisture, virgin/no reflux

Compound: FC(F)(F)/C=C/Cl [1233zd(E), trans-1-chloro-3,3,3-trifluoropropene]
- Acetate [1, 4]: 0.04 ppm
- Br^− [1, 4]: <0.05 ppm
- Cl^− [1, 4]: 0.08 ppm
- F^− [1, 4]: 0.05 ppm
- Formate [1, 4]: 0.10 ppm
- NO3^− [1, 4]: <0.05 ppm
- PO4^−3 [1, 4]: <0.10 ppm
- SO4^−2 [1, 4]: 0.18 ppm
- Acetate [1, 5]: 0.07 ppm
- Br^− [1, 5]: <0.05 ppm
- Cl^− [1, 5]: 0.07 ppm
- F^− [1, 5]: 0.05 ppm
- Formate [1, 5]: 0.14 ppm
- NO3^− [1, 5]: 0.10 ppm
- PO4^−3 [1, 5]: <0.10 ppm
- SO4^−2 [1, 5]: 0.26 ppm
- Acetate [1, 6]: 0.09 ppm
- Br^− [1, 6]: <0.05 ppm
- Cl^− [1, 6]: 0.08 ppm
- F^− [1, 6]: 0.06 ppm
- Formate [1, 6]: 0.16 ppm
- NO3^− [1, 6]: 0.15 ppm
- PO4^−3 [1, 6]: <0.10 ppm
- SO4^−2 [1, 6]: 0.31 ppm
- Acetate [1, 7]: 0.04 ppm
- Br^− [1, 7]: <0.05 ppm
- Cl^− [1, 7]: 0.07 ppm
- F^− [1, 7]: 0.05 ppm
- Formate [1, 7]: 0.08 ppm
- NO3^− [1, 7]: <0.05 ppm
- PO4^−3 [1, 7]: <0.10 ppm
- SO4^−2 [1, 7]: 0.19 ppm
- Acetate [1, 8]: 0.04 ppm
- Br^− [1, 8]: <0.05 ppm
- Cl^− [1, 8]: 0.07 ppm
- F^− [1, 8]: 0.06 ppm
- Formate [1, 8]: 0.08 ppm
- NO3^− [1, 8]: <0.05 ppm
- PO4^−3 [1, 8]: <0.10 ppm
- SO4^−2 [1, 8]: 0.18 ppm
- Acetate [1, 9]: 0.08 ppm
- Br^− [1, 9]: <0.05 ppm
- Cl^− [1, 9]: 0.08 ppm
- F^− [1, 9]: 0.05 ppm
- Formate [1, 9]: 0.12 ppm
- NO3^− [1, 9]: <0.05 ppm
- PO4^−3 [1, 9]: <0.10 ppm
- SO4^−2 [1, 9]: 0.23 ppm
- Acetate [1, 10]: 0.12 ppm
- Br^− [1, 10]: <0.05 ppm
- Cl^− [1, 10]: 0.14 ppm
- F^− [1, 10]: 0.09 ppm
- Formate [1, 10]: 0.26 ppm
- NO3^− [1, 10]: 0.19 ppm
- PO4^−3 [1, 10]: <0.10 ppm
- SO4^−2 [1, 10]: 0.45 ppm
- Acetate [1, 11]: 0.08 ppm
- Br^− [1, 11]: <0.05 ppm
- Cl^− [1, 11]: 0.12 ppm
- F^− [1, 11]: 0.08 ppm
- Formate [1, 11]: 0.17 ppm
- NO3^− [1, 11]: 0.06 ppm
- PO4^−3 [1, 11]: <0.10 ppm
- SO4^−2 [1, 11]: 0.17 ppm
- Acetate [1, 12]: 0.12 ppm
- Br^− [1, 12]: <0.05 ppm
- Cl^− [1, 12]: 0.9 ppm
- F^− [1, 12]: 0.09 ppm
- Formate [1, 12]: 0.10 ppm
- NO3^− [1, 12]: 0.12 ppm
- PO4^−3 [1, 12]: <0.10 ppm
- SO4^−2 [1, 12]: 0.41 ppm
- Acetate [1, 13]: 0.12 ppm
- Br^− [1, 13]: <0.05 ppm
- Cl^− [1, 13]: 0.12 ppm
- F^− [1, 13]: 0.08 ppm
- Formate [1, 13]: 0.22 ppm
- NO3^− [1, 13]: 0.14 ppm
- PO4^−3 [1, 13]: <0.10 ppm
- SO4^−2 [1, 13]: 0.30 ppm
- Acetate [1, 14]: 0.10 ppm
- Br^− [1, 14]: <0.05 ppm
- Cl^− [1, 14]: 0.11 ppm
- F^− [1, 14]: 0.08 ppm
- Formate [1, 14]: 0.12 ppm
- NO3^− [1, 14]: 0.06 ppm
- PO4^−3 [1, 14]: <0.10 ppm
- SO4^−2 [1, 14]: 0.18 ppm
- Acetate [1, 15]: 0.13 ppm
- Br^− [1, 15]: <0.05 ppm
- Cl^− [1, 15]: 0.16 ppm
- F^− [1, 15]: 0.09 ppm
- Formate [1, 15]: 0.19 ppm
- NO3^− [1, 15]: 0.12 ppm
- PO4^−3 [1, 15]: <0.10 ppm
- SO4^−2 [1, 15]: 0.29 ppm
- Acetate [1, 16]: 0.13 ppm
- Br^− [1, 16]: <0.05 ppm
- Cl^− [1, 16]: 0.11 ppm
- F^− [1, 16]: 0.08 ppm
- Formate [1, 16]: 0.35 ppm
- NO3^− [1, 16]: 0.06 ppm
- PO4^−3 [1, 16]: <0.10 ppm
- SO4^−2 [1, 16]: 0.21 ppm
- breakdown products in solvent after reflux ([1]; reflux with individual metals and added moisture (0.20% H2O), 100 hours): no increase of chlorides and fluorides in the solvent over the baseline and no other degradation products
- Boiling Point [2]: 19.52 °C
- Flash Point [2]: None
- Kauri-Butanol value [2]: 25
- flammability [2]: completely non-flammable
- Vapor Pressure ([2]; @20 C.): 15.23 psi
- Heat of Vaporization ([2]; at bp): 193.9 kJ/kg
- Soil Dissolution in solvent ([3]; Mineral Oil): Miscible
- Soil Dissolution in solvent ([3]; Refrigerant oil): Miscible
- Soil Dissolution in solvent ([3]; Silicone Lubricant): Miscible
- Soil Dissolution in solvent ([3]; Solder Flux): Miscible

- Boiling Point [2]: 47.6 °C
- Flash Point [2]: None
- Kauri-Butanol value [2]: 32
- Vapor Pressure [2]: 5.27 psi
- Heat of Vaporization ([2]; at bp): 144.7 kJ/kg
Compound: FC(F)(Cl)C(F)(Cl)Cl [CFC-113, 1,1,2-trichlorotrifluoroethane]

Compound: FC(C(F)C(F)(F)C(F)(F)F)C(F)(F)F (stereo not drawn) [HFC 43-10mee]
- Boiling Point [2]: 54 °C
- Flash Point [2]: None
- Vapor Pressure [2]: 4.4 psi
- Heat of Vaporization ([2]; at bp): 129.7 kJ/kg

Compound: ClC(Cl)=C(Cl)Cl [Perc, perchloroethylene]
- Boiling Point [2]: 121.3 °C
- Flash Point [2]: None
- Vapor Pressure ([2]; @20 C.): 0.27 psi
- Heat of Vaporization ([2]; at bp): 207 kJ/kg

Compound: CCCBr [n-Propyl Bromide, n-propyl bromide, reference compound]
- Boiling Point [2]: 71 °C
- Flash Point [2]: None
- Vapor Pressure ([2]; @20 C.): 2.1 psi
- Heat of Vaporization ([2]; at bp): 246 kJ/kg
- Soil Dissolution in solvent ([3]; Mineral Oil): Miscible
- Soil Dissolution in solvent ([3]; Refrigerant oil): Miscible
- Soil Dissolution in solvent ([3]; Silicone Lubricant): Miscible
- Soil Dissolution in solvent ([3]; Solder Flux): Miscible

Compound: O [water]
- surface tension [2]: 72.1 dynes/cm

Compound: dichloropentafluoropropane [HCFC-225]
- Boiling Point [2]: 54 °C
- Flash Point [2]: None
- Vapor Pressure ([2]; @20 C.): 5.6 psi
- Heat of Vaporization ([2]; @25° C.): 145@25 °C kJ/kg
